Test results taken from the OligoGym collection.
Values joined by “and” are separate entries in the source; they are usually repeats but may differ in a detail not shown here. Equal values may be shown once. After the bases stand the sugars from the 5' end (letter, count) and the backbone: PS all phosphorothioate, else s phosphorothioate and o phosphodiester by linkage. Methylation of C is not given here. e = 2'-O-(2-methoxyethyl) (MOE); k = constrained ethyl (cEt); d = 2'-deoxy (DNA)

Biological target: SOD1
Settings: ASO

Which target mRNA inhibition (HepG2, 5 µM) does the source give for “CAGTCAGTCCTTTAATGCTT (sugars e5 d10 e5, PS)” here?
Its target mRNA inhibition is 35% and 29%.

For “CAGTGTTTAATGTTTAT (sugars e2 k2 d9 k2 e2, PS)”, which target mRNA inhibition (HepG2, 0.1875 µM) is on record?
Its target mRNA inhibition is 45%.

What about the target mRNA inhibition (HepG2, 0.75 µM) of the same sequence?
The target mRNA inhibition was 73%.

What about the target mRNA inhibition (HepG2, 3 µM) of the same sequence?
Its target mRNA inhibition is 84%.

And the target mRNA inhibition (HepG2, 4 µM)?
Its target mRNA inhibition is 84%.

What about the target mRNA inhibition (HepG2, 5 µM) of the same sequence?
The target mRNA inhibition was 85%.

And the target mRNA inhibition (HepG2, 12 µM)?
Its target mRNA inhibition is 82% and 87%.

With “CAGTTTCTCACTACAGG (sugars e2 k2 d8 k2 e3, PS)” as the sequence, how does the target mRNA inhibition (HepG2, 5 µM) read?
The target mRNA inhibition was 38%.

“CATCTGCTTTTTCATGGACC (sugars e5 d10 e5, PS)” was tested. Which target mRNA inhibition (HepG2, 3 µM) did it give?
The target mRNA inhibition was 46%.

With “CATGCAGGCCTTCAGTC (sugars e3 k2 d7 k2 e3, PS)” as the sequence, how does the target mRNA inhibition (HepG2, 3 µM) read?
Its target mRNA inhibition is 41%.

Which target mRNA inhibition (HepG2, 5 µM) does the source give for “CATGCAGGCCTTCAGTCAGT (sugars e5 d10 e5, PS)” here?
Its target mRNA inhibition is 37% and 33%.

“CATTGAAACAGACATTT (sugars e3 k2 d7 k2 e3, PS)” was tested. Which target mRNA inhibition (HepG2, 3 µM) did it give?
The target mRNA inhibition was 11%.

How did the target mRNA inhibition (HepG2, 3 µM) turn out when “CCAAGTCATCTGCTTTT (sugars e3 k2 d7 k2 e3, PS)” was run?
The target mRNA inhibition was 50%.

With “CCAATGATGCAATGGTCTCC (sugars e5 d10 e5, PS)” as the sequence, how does the target mRNA inhibition (HepG2, 5 µM) read?
The target mRNA inhibition was 8%.

Which target mRNA inhibition (HepG2, 4 µM) does the source give for “CCAATTACACCACAAGC (sugars e2 k2 d8 k2 e3, PS)” here?
Its target mRNA inhibition is 66%.

For “CCACACCTTCACTGGTC (sugars e3 k2 d7 k2 e3, PS)”, which target mRNA inhibition (HepG2, 3 µM) is on record?
Its target mRNA inhibition is 36%.

How did the target mRNA inhibition (HepG2, 5 µM) turn out when “CCACCAGTGTGCGGCCAATG (sugars e5 d10 e5, PS)” was run?
The target mRNA inhibition was 22%.

How did the target mRNA inhibition (HepG2, 3 µM) turn out when “CCACCTTTGCCCAAGTC (sugars e3 k2 d7 k2 e3, PS)” was run?
The target mRNA inhibition was 91%.

How did the target mRNA inhibition (HepG2, 5 µM) turn out when “CCATACAGGGTTTTTAT (sugars e2 k2 d9 k2 e2, PS)” was run?
Its target mRNA inhibition is 34%.

With “CCCAATTACACCACAAG (sugars e2 k2 d9 k2 e2, PS)” as the sequence, how does the target mRNA inhibition (HepG2, 0.1875 µM) read?
The target mRNA inhibition was 25%.

And the target mRNA inhibition (HepG2, 0.75 µM)?
Its target mRNA inhibition is 52%.

What about the target mRNA inhibition (HepG2, 3 µM) of the same sequence?
The target mRNA inhibition was 82%.

What about the target mRNA inhibition (HepG2, 4 µM) of the same sequence?
Its target mRNA inhibition is 74%.

What about the target mRNA inhibition (HepG2, 12 µM) of the same sequence?
The target mRNA inhibition was 97%.

Which target mRNA inhibition (HepG2, 3 µM) does the source give for “CCCAATTACACCACAAG (sugars e3 k2 d7 k2 e3, PS)” here?
Its target mRNA inhibition is 29%.

With “CCCACACCTTCACTGG (sugars ekddddddddekekee, linkages s1 o1 s8 o3 s2)” as the sequence, how does the target mRNA inhibition (A431, 0.12 µM) read?
Its target mRNA inhibition is 2%.

What about the target mRNA inhibition (A431, 0.6 µM) of the same sequence?
The target mRNA inhibition was 0%.

And the target mRNA inhibition (A431, 3 µM)?
Its target mRNA inhibition is 0%.

What about the target mRNA inhibition (A431, 15 µM) of the same sequence?
Its target mRNA inhibition is 12%.

And the target mRNA inhibition (HepG2, 0.222 µM)?
The target mRNA inhibition was 15%.

What about the target mRNA inhibition (HepG2, 0.667 µM) of the same sequence?
Its target mRNA inhibition is 31%.

What about the target mRNA inhibition (HepG2, 2 µM) of the same sequence?
Its target mRNA inhibition is 58%.

What about the target mRNA inhibition (HepG2, 6 µM) of the same sequence?
The target mRNA inhibition was 81%.

Which target mRNA inhibition (HepG2, 3 µM) does the source give for “CCCACACCTTCACTGGT (sugars e3 k2 d7 k2 e3, PS)” here?
Its target mRNA inhibition is 18%.

With “CCCCACACCTTCACTG (sugars ekddddddddekekee, linkages s1 o1 s8 o3 s2)” as the sequence, how does the target mRNA inhibition (A431, 0.12 µM) read?
The target mRNA inhibition was 0%.

And the target mRNA inhibition (A431, 0.6 µM)?
The target mRNA inhibition was 0%.

And the target mRNA inhibition (A431, 3 µM)?
The target mRNA inhibition was 0%.

And the target mRNA inhibition (A431, 15 µM)?
Its target mRNA inhibition is 0%.

What about the target mRNA inhibition (HepG2, 0.222 µM) of the same sequence?
The target mRNA inhibition was 21%.

And the target mRNA inhibition (HepG2, 0.667 µM)?
The target mRNA inhibition was 36%.

And the target mRNA inhibition (HepG2, 2 µM)?
Its target mRNA inhibition is 60%.

And the target mRNA inhibition (HepG2, 6 µM)?
The target mRNA inhibition was 75%.

“CCCTTCAGCACGCACAC (sugars e2 k2 d9 k2 e2, PS)” was tested. Which target mRNA inhibition (HepG2, 0.1875 µM) did it give?
Its target mRNA inhibition is 14%.

What about the target mRNA inhibition (HepG2, 0.75 µM) of the same sequence?
Its target mRNA inhibition is 47%.

What about the target mRNA inhibition (HepG2, 3 µM) of the same sequence?
The target mRNA inhibition was 82%.

And the target mRNA inhibition (HepG2, 4 µM)?
Its target mRNA inhibition is 81%.

And the target mRNA inhibition (HepG2, 12 µM)?
Its target mRNA inhibition is 97%.

With “CCCTTCAGCACGCACACGGC (sugars e5 d10 e5, PS)” as the sequence, how does the target mRNA inhibition (HepG2, 0.1875 µM) read?
The target mRNA inhibition was 17%.

What about the target mRNA inhibition (HepG2, 0.75 µM) of the same sequence?
The target mRNA inhibition was 26%.

What about the target mRNA inhibition (HepG2, 3 µM) of the same sequence?
Its target mRNA inhibition is 59%.

And the target mRNA inhibition (HepG2, 4 µM)?
Its target mRNA inhibition is 37%.

And the target mRNA inhibition (HepG2, 12 µM)?
The target mRNA inhibition was 83%.

“CCGAGGTCCTGGTTCCGAGG (sugars e5 d10 e5, PS)” was tested. Which target mRNA inhibition (HepG2, 4 µM) did it give?
The target mRNA inhibition was 18%.

With “CCGTCGCCCTTCAGCAC (sugars e2 k2 d8 k2 e3, PS)” as the sequence, how does the target mRNA inhibition (HepG2, 4 µM) read?
The target mRNA inhibition was 71%.

For “CCGTCTCCGCGACTACTTTA (sugars e5 d10 e5, PS)”, which target mRNA inhibition (HepG2, 4 µM) is on record?
The target mRNA inhibition was 20%.

How did the target mRNA inhibition (HepG2, 5 µM) turn out when “CCGTGTTTTCTGGATAGAGG (sugars e5 d10 e5, PS)” was run?
Its target mRNA inhibition is 44% and 37%.

What does the source list for “CCTCAGACTACATCCAA (sugars e2 k2 d8 k2 e3, PS)”?
target mRNA inhibition (HepG2, 0.1875 µM): 26%; target mRNA inhibition (HepG2, 0.75 µM): 51%; target mRNA inhibition (HepG2, 3 µM): 77%; target mRNA inhibition (HepG2, 4 µM): 73%; target mRNA inhibition (HepG2, 12 µM): 91%

How did the target mRNA inhibition (HepG2, 0.1875 µM) turn out when “CCTCAGACTACATCCAA (sugars e3 k2 d7 k2 e3, PS)” was run?
The target mRNA inhibition was 16%.

And the target mRNA inhibition (HepG2, 0.75 µM)?
The target mRNA inhibition was 42%.

And the target mRNA inhibition (HepG2, 3 µM)?
The target mRNA inhibition was 58% and 70%.

And the target mRNA inhibition (HepG2, 12 µM)?
The target mRNA inhibition was 84%.

“CCTTCACTGGTCCATTA (sugars e3 k2 d7 k2 e3, PS)” was tested. Which target mRNA inhibition (HepG2, 3 µM) did it give?
Its target mRNA inhibition is 8%.

“CGAAATTGATGATGCCCTGC (sugars e5 d10 e5, PS)” was tested. Which target mRNA inhibition (HepG2, 4 µM) did it give?
Its target mRNA inhibition is 32%.

How did the target mRNA inhibition (HepG2, 4 µM) turn out when “CGCAAACCAGCACCCCGTCT (sugars e5 d10 e5, PS)” was run?
Its target mRNA inhibition is 21%.

How did the target mRNA inhibition (HepG2, 4 µM) turn out when “CGCCGAGGTCCTGGTTCCGA (sugars e5 d10 e5, PS)” was run?
The target mRNA inhibition was 24%.

With “CGTCGCCCTTCAGCACG (sugars e2 k2 d9 k2 e2, PS)” as the sequence, how does the target mRNA inhibition (HepG2, 4 µM) read?
The target mRNA inhibition was 43%.

For “CTACGACGCAAACCAGCACC (sugars e5 d10 e5, PS)”, which target mRNA inhibition (HepG2, 4 µM) is on record?
The target mRNA inhibition was 19%.

Which target mRNA inhibition (HepG2, 3 µM) does the source give for “CTAGCAGGATAACAGAT (sugars e3 k2 d7 k2 e3, PS)” here?
The target mRNA inhibition was 39%.

For “CTAGGCCACGCCGAGGTCCT (sugars e5 d10 e5, PS)”, which target mRNA inhibition (HepG2, 4 µM) is on record?
Its target mRNA inhibition is 39%.
